According to article PMC2151668 (The Journal of General Physiology, 2007):
Read-outs that look alike come from different tables or passages of the source. Peptide text beside a SMILES is read from it.

Tests used:
[1] = Acrylamide quenching of W30 tryptophan fluorescence; assay type: physicochemical
Kv2.1 channel = molecular target: T1, Kv2.1 channel (Rattus norvegicus, UniProt P15387, A366D/I383M/K360G/K386V/S367A/T359S/Y384T); test: Two-electrode voltage-clamp recording of Kv2.1 expressed in oocytes; assay type: cell-based
T1 sequence (P15387 1-857 T359S/K360G/A366D/S367A/I383M/Y384T/K386V): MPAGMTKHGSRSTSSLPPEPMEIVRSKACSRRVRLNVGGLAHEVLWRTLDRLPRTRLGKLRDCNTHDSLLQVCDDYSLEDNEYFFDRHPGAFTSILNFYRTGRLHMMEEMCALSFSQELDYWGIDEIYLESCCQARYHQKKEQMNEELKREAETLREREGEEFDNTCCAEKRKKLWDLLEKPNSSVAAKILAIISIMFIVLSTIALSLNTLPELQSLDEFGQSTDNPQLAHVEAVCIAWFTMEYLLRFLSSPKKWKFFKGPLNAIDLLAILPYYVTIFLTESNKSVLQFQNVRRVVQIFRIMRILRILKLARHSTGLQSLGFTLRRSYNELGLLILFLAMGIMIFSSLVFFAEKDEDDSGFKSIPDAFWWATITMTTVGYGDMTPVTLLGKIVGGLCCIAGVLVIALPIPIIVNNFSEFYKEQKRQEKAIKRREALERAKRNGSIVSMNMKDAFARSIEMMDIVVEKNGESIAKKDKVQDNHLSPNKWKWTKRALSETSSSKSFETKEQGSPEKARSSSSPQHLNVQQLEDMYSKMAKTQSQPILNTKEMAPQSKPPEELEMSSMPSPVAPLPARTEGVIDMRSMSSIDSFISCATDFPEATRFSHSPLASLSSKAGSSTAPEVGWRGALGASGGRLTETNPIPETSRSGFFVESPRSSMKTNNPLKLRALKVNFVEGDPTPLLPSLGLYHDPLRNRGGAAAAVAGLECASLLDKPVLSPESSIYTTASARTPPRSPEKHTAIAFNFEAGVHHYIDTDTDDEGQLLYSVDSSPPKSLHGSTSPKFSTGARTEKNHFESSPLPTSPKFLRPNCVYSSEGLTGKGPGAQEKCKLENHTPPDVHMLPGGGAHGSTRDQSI

[2] = for F/F0 max: 1:1 POPG:POPC LUVs; for F/F0 max / λmax: HEB, 100 mM K+
[3] = toxin:lipid 2 μM:0.9 mM, HEB pH 7, n = 3

## CC(C)C[C@@H]1NC(=O)[C@H](Cc2c[nH]cn2)NC(=O)[C@H](CCCCN)NC(=O)[C@@H]2CSSC[C@H](NC(=O)[C@@H](N)CCC(=O)O)C(=O)N[C@@H](CCCNC(=N)N)C(=O)N[C@@H](Cc3ccc(O)cc3)C(=O)N[C@@H](CC(C)C)C(=O)N[C@@H](Cc3ccccc3)C(=O)NCC(=O)NCC(=O)N[C@H]3CSSC[C@H](NC(=O)CNC1=O)C(=O)N[C@@H](CCCCN)C(=O)N[C@@H](Cc1ccccc1)C(=O)N[C@@H](CCCNC(=N)N)C(=O)N[C@@H](CC(=O)O)C(=O)N[C@@H](CCCCN)C(=O)N[C@@H](Cc1ccc(O)cc1)C(=O)N[C@H](C(=O)N[C@@H](C)C(=O)N[C@@H](Cc1c[nH]c4ccccc14)C(=O)N[C@@H](CC(=O)O)C(=O)N[C@@H](Cc1ccccc1)C(=O)N[C@H](C(=O)N[C@@H](Cc1ccccc1)C(=O)N[C@@H](CO)C(=O)O)[C@@H](C)O)CSSC[C@H](NC(=O)[C@H](CC(=O)O)NC(=O)[C@H](CO)NC(=O)[C@H]([C@@H](C)O)NC(=O)[C@H]([C@@H](C)O)NC(=O)[C@H](CCCCN)NC3=O)C(=O)N2 [Hanatoxin] (HELM PEPTIDE1{E.C.R.Y.L.F.G.G.C.K.T.T.S.D.C.C.K.H.L.G.C.K.F.R.D.K.Y.C.A.W.D.F.T.F.S}$PEPTIDE1,PEPTIDE1,2:R3-16:R3|PEPTIDE1,PEPTIDE1,9:R3-21:R3|PEPTIDE1,PEPTIDE1,15:R3-28:R3$$$V2.0; N-terminus and C-terminus assumed)
[1]; toxin 2 μM in solution, no lipid vesicles, n = 3
  Stern-Volmer constant (KSV), Solution: 48 ± 3 M⁻¹
[1]; [3]
  Stern-Volmer constant (KSV), POPC, HEB: 10 ± 0.5 M⁻¹
  Stern-Volmer constant (KSV), POPC:POPG, HEB: 7 ± 0.1 M⁻¹
[1]; toxin:lipid 2 μM:0.9 mM, PB (10 mM HEPES, 100 mM KCl, 1 mM MgCl2, 0.3 mM CaCl2, pH 7.6), n = 3
  Stern-Volmer constant (KSV), POPC:POPG, PB: 18 ± 0.2 M⁻¹
[1]; toxin:lipid 2 μM:0.9 mM, PB pH 7.6, n = 3
  Stern-Volmer constant (KSV), POPC, PB: 23 ± 0.7 M⁻¹
Kv2.1 channel; 4 μM hanatoxin in external solution, oocytes, n = 3
  effect on Kv2.1 channel opening: pronounced inhibition of opening at negative voltages
Kv2.1 channel; control (untreated) oocytes, 500 nM hanatoxin
  time for channel activity to recover to control values after toxin removal: ~1,000 s
[2]; 1 mM free Ca2+, n = 3
  F/F0 max: 2.1 ± 0.1
[2]; pH 7, n = 3
  F/F0 max: 2.0 ± 0.02
[2]; +POPG:POPC vesicles, 1 mM free Ca2+
  λmax: 350.0 nm
[2]; +POPG:POPC vesicles, pH 7
  λmax: 344.3 nm
[2]; as printed in legend, anionic vesicles, HEB with 100 mM KCl, n = 3
  Kx: (5.3 ± 0.03) × 10^5
[2]; toxin in solution without lipid, 1 mM free Ca2+
  λmax: 353.7 nm
[2]; upon addition of 1:1 POPC:POPG vesicles (2.4 mM), HEB pH 7
  blue shift in fluorescence emission spectrum: 10.9 nm
